From publication PMC7278358, “Kinetic parameters of human aspartate/asparagine–β-hydroxylase suggest that it has a possible function in oxygen sensing” (The Journal of Biological Chemistry, 2020)
Where “and” joins values, the source holds several entries; their conditions need not be identical. Equal entries are not always repeated. Where two headings read alike, the source gives them in different places.

What was measured:
human His6–AspH315–758 = target: T1, human His6–AspH315–758 (Homo sapiens, UniProt Q12797); assay: AspH O2 dependence (variable O2 partial pressures, SPE-MS); assay type: biochemical; settings: n = 4
T1 construct: a pET-28a(+) vector encoding for N-terminal His6-tagged AspH315–758 (His6–AspH315–758) was transformed into Escherichia coli BL21 (DE3) cells; made in house; host or cells: Escherichia coli BL21 (DE3)
T1 sequence (Q12797 315-758): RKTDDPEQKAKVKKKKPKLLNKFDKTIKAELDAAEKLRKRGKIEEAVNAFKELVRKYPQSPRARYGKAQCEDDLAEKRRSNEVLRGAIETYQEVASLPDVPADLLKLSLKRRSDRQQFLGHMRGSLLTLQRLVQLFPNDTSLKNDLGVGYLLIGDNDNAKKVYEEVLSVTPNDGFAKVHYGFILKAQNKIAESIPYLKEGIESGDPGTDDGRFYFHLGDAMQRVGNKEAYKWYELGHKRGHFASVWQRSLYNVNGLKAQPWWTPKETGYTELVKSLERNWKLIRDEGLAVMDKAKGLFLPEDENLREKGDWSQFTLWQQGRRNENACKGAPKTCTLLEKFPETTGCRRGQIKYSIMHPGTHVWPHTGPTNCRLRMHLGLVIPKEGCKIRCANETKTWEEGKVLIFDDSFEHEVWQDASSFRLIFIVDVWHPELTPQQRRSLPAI
Experimental: For determining vmax^app and Km^app of AspH for O2, 2.2 μM hFX–CP101–119 (65 μl) in 50 mM HEPES (pH 7.5) were exposed in a gas-tight glass vial to variable O2 concentrations (in nitrogen; Fig. S7) using a mass flow controller ([32]). After equilibrating the atmosphere, co-factor and co-substrates were added by syringe (1.5 μl of 4.7 mM LAA and 0.99 mM 2OG in MQ-grade water and 1.5 μl of 0.99 mM FAS in MQ-grade water) followed by 2.0 μl of 3.5 μM His6–AspH315–758 in 50 mM HEPES (pH 7.5) at 20 °C. The enzyme reaction was stopped after the indicated reaction time by the addition of 15% (v/v) aqueous formic acid (4 μl) and analyzed by SPE-MS using the configurations given above; the experiments were performed in independent quadruplicates. The data were analyzed as described, and the slopes of the initial reaction rates (Fig. S7) were fitted to a Michaelis–Menten plot using nonlinear regression (GraphPad Prism 5).

KDM4C = settings: read-out: Km app(O2); cited from earlier work
From the text: (§1) At higher partial pressures of O2, the standard deviation among independent quadruplicates increased slightly because of efficient peptide hydroxylation requiring short reaction times; however, maximum velocities (vmax^app) were still similar within experimental error, indicating good data quality and reproducibility (Fig. S7). The AspH Km^app for O2 is high compared with the values reported for most oth ...

KDM6A = settings: read-out: Km app(O2); cited from earlier work
From the text: as §1

[1] = system: human phytanoyl-CoA hydroxylase; settings: read-out: Km app(O2); cited from earlier work
From the text: as §1

PHD2 = settings: same experimental setup, cited from earlier work; for Km: read-out: Km app for O2
From the text: as §1

[2] = system: collagen prolyl 4-hydroxylases; settings: read-out: Km app(O2); cited from earlier work
From the text: as §1

KDM4A = settings: cited from earlier work
From the text: as §1

FIH = settings: peptide substrate HIF-1α CAD35mer, same experimental setup, cited from earlier work
From the text: as §1

KDM4E = settings: read-out: Km app(O2); cited from earlier work
From the text: as §1

[3] = O2 varied, hFX–CP101–119 substrate

Km app of AspH for O2 [%] (human His6–AspH315–758; O2 in nitrogen, 100 μM LAA, 20 μM 2OG, 20 μM FAS, 2.0 μM hFX-CP101-119, 0.1 μM His6-AspH315-758, pH 7.5, 20 °C): 47.2 ± 8.1 % O2
vmax app (human His6–AspH315–758; O2 varied (in nitrogen), 100 μM LAA, 20 μM 2OG, 20 μM FAS, 2.0 μM hFX–CP101–119, 0.1 μM His6–AspH315–758, 50 mM HEPES pH 7.5, 20 °C): 0.0207 ± 0.0018 µM/s
Km (human His6–AspH315–758; O2 varied (in nitrogen), 100 μM LAA, 20 μM 2OG, 20 μM FAS, 2.0 μM hFX–CP101–119, 0.1 μM His6–AspH315–758, 50 mM HEPES pH 7.5, 20 °C, O2 % converted by y[μM] = 9.026·x[%], read-out: Km app for O2): ~426 µM and 426 µM
kcat (human His6–AspH315–758; [3]): 0.23 ± 0.04 s⁻¹
kcat/Km (human His6–AspH315–758; [3]): 540 ± 130 M⁻¹ s⁻¹
Structure (SMILES): O=O [O2]
Km (KDM4C): 158 ± 13 µM
Km (KDM6A): 180 ± 40 µM
Km [1]: 93 ± 43 µM
kcat (PHD2; peptide substrate HIF-1α CODD): 0.06 ± 0.01 s⁻¹
Km (PHD2; peptide substrate HIF-1α CODD): 460 ± 30 µM
kcat (PHD2; peptide substrate HIF-1α NODD): 0.028 ± 0.001 s⁻¹
Km (PHD2; peptide substrate HIF-1α NODD): > 450 µM
Km [2]: 40 µM
Km (KDM4A; peptide substrate H3_1–15K9me3, same experimental setup, read-out: Km app for O2): ~173 µM and 173 µM
Km (KDM4A; read-out: Km app(O2)): 57 ± 10 µM
kcat (FIH): 0.56 ± 0.04 s⁻¹
Km (FIH; read-out: Km app for O2): ~110 µM and 110 µM
Km (KDM4E): 197 ± 16 µM
